Test results from ChEMBL document CHEMBL5050861 (2021).
pIC50, pKd: −log10 of the molar value. ≈ marks a conversion by molar mass, not a printed value.

Key:
[1] = Stability of compound in rat microsomes assessed as half-life; type: ADME, Microsome
[2] = Stability of compound in human liver microsomes assessed as half-life; type: ADME, Microsome
[3] = Stability of compound in mouse liver microsomes assessed as half-life; type: ADME, Microsome
[4] = Kinetic aqueous solubility of the compound; type: physicochemical; conditions: buffer; read-out: Kinetic_solubility
Fibroblast = assay: Inhibition of human GALK1 K252A/E253A double mutant in human skin fibroblasts at 10 uM assessed as reduction in Gal-1P accumulation; type: cell-based
[5] = Inhibition of recombinant mouse GALK1 using ATP as substrate incubated for 1 hr and measured by Kinase-Glo assay; conditions: read-out: IC50
[6] = Stability of compound in rat liver microsomes assessed as half-life; type: ADME, Microsome
[7] = Inhibition of human GALK1 K252A/E253A double mutant; conditions: read-out: IC50
[8] = Binding affinity towards human GALK1 K252A/E253A double mutant measured by surface plasmon resonance (SPR) assay
Homo sapiens = organism: Homo sapiens; assay: Inhibition of human GALK1 K252A/E253A double mutant relative to control; set-up: concentration or dose not given beside the values; conditions: concentration not given here

| half-life [1] [min] | t1/2 [2] [min] | half-life [3] [min] | solubility kinetic [4] [µg/mL] | pIC50 [5] | half-life [6] [min] | pIC50 [7] | pKd [8] | inhibition (Homo sapiens) [%] | SMILES | inhibition (Fibroblast) [%] |
| --- | --- | --- | --- | --- | --- | --- | --- | --- | --- | --- |
| 17.1 | 47 | 13 | 1.27 (≈ 2.43 µM) | 6.16 | 16 | 7.85 | – | – | CC1=C(C(=O)NCc2cnn(C)c2)C(c2ccc(C)cc2Cl)N=C(Nc2nc3ccc(F)c(N)c3o2)N1 (stereo not given) | 100 |
| > 30 | – | – | > 76 | 5.46 | – | 7.11 | 7.92 | 100 | CC1=C(C(=O)Nc2cc(C(=O)O)ccn2)C(c2ccccc2Cl)N=C(Nc2nc3cccc(N)c3o2)N1 (racemic) | – |
| > 30 | – | – | 46.1 (≈ 88.5 µM) | 5.36 | – | 6.59 | 7.64 | 100 | CC1=C(C(=O)Nc2cc(C(=O)O)ccn2)C(c2ccccc2Cl)N=C(Nc2nc3ccc(F)cc3o2)N1 (racemic) | – |
